The record followed here is patent publication US4963585A, “Compound, WF11605 and derivative thereof” (Fujisawa Pharmaceutical Company, Ltd., priority 1988, dated 1990).

Molecules are shown by their SMILES. Values after ≈ are worked out from the molar mass of the structure shown.

The test system of data set [1] is FMLP-induced degranulation in rabbit PMNLs. Description: FMLP-induced degranulation (beta-glucuronidase release) of rabbit PMNLs. Type of data set: cell-based. Particulars: Oryctolagus cuniculus, PMNL; FMLP 7×10^-10 M, Cytochalasin B 10^-5 M; read-out: 50% inhibitory concentration (IC50), FMLP-induced degranulation. Here is the method:
(§1) PMNLs were collected from the peritoneal exudates of male Japanese White rabbits. At 16 hr after the injection of 0.1% glycogen (400 ml/animal, i.p.), the peritoneal cells were collected and washed with Eagle's minimum essential medium (MEM) and resuspended in the same medium. Over 90% of the cells were judged as PMNLs after Giemsa staining .
(§2) PMNL suspension (5×10^6 cells/ml) was incubated with test substance or vehicle at 37° C. for 5 min in plastic tubes. Leukotriene B4 (LTB4, 7×10^-8 M, Cayman Chemical Co.,), […] (FMLP, 7×10^-10 M, Sigma) or platelet activating factor (PAF, 7×10^-7 M, Sigma) together with Cytochalasin B (10^-5 M, Sigma) were added and then incubated for 5 min at 37° C. Incubation was terminated by transfer to an ice bath followed by rapid centrifugation. The cell-free supernatants were subsequently assayed for the activity of beta-glucuronidase.
(§3) The assay mixture consisted of 300 μl of acetate buffer (0.1M, pH 4.6), 100 μl of sample (supernatant obtained above) and 50 μl of methylumbelliferyl-beta-D-glucuronide (1 mM, NAKARAI CHEMICAL Co.,) as substrate. […] The fluorescence (excitation; 365 nm, emission; 455 nm) of each sample was determined.
(§4) The results are expressed as percent of total beta-glucuronidase released where total are the amount of the enzyme in the cells released by 0.1% Triton X-100.

Data set [2] deals with T1, ^3 H-LTB4 receptor (rabbit PMNLs) (Oryctolagus cuniculus, UniProt G1U4T1).
T1 construct: endogenous in cells; host or cells: freeze-thawed polymorphonuclear leukocytes (PMNLs) from peritoneal exudate of rabbit (glycogen-elicited, male Japanese White rabbits)
T1 sequence (G1U4T1 1-363): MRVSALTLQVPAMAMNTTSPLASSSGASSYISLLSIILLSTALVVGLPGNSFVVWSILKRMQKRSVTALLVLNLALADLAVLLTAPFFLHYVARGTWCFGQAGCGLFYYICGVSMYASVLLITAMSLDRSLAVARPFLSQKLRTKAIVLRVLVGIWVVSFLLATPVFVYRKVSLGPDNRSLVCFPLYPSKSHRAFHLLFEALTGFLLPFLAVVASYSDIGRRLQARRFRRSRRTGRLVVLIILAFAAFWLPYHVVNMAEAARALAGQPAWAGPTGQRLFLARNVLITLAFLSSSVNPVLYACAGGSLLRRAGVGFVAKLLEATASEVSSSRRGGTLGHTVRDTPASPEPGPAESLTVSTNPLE
The data set can be described thus: Inhibition of binding of ^3 H-LTB4 to freeze-thawed PMNLs (^3 H-LTB4 receptor assay). Particulars: 4° C., 30 min; for ^3 H-LTB4 specific binding: control 1684 dpm. The protocol: PMNLs collected from the peritoneal exudate of rabbit were suspended at a concentration of 5×10^6 /ml in Eagle's MEM, stored at -20° C. and used within 2 weeks. On use, the PMNLs were thawed at room temperature and kept at 4° C.
^3 H-LTB4 ((5,6,8,9,11,14,15 (n)-^3 H)Leukotriene B4, 20 μCi/ml, Amersham Co., Japan) was diluted 20-fold with 3×10^-9M nonradioactive LTB4 in Hanks' balanced salt solution containing 10 mM N-(2-Hydroxyethyl)-piperazine-N'-2-ethanesulfonic acid, pH 7.4 (HBSS-HEPES). Fifteen microlitter of the solution was added to 60 μl HBSS-HEPES at 4° C. and then 25 μl of competitor or corresponding vehicle and 150 μl of freeze-thrawed cells (5×10^6 /ml) were also added, followed by vigorous mixing and allowing to stand for 30 min at 4° C. The resultant mixture was immediately filtered through Whatman GF/C glass filter to separate free and bound ^3 H-LTB4 using cell harvester (BRANDELL M-24R 5/8). The filter paper was quickly washed 5 times by 150 μl of cold HBSS-HEPES, dried, cut off and placed in a scintillation vial. To the vial was added 3 ml of toluene-based scintillation fluid and then the radioactivity was counted. All assay were carried out in duplicate. Specific binding defined as total binding minus non specific binding (with 0.1 μM LTB4), was about 60% of total binding.

A short description of data set [3]: Acute toxicity, intraperitoneal, mice. The settings on record: mouse, in vivo, ip, female, 4 weeks old. From the text: The WF11605 was intraperitoneally given to mice (female, 4 weeks old). From the test results, LD50 of WF11605 was more than 1 g/kg.
Another data set relates to Mucor rouxianus Wehmer. Description: Antimicrobial activity, broth dilution method. The settings on record: Sabouraud 25° C. 40 hrs. Type of data set: cell-based. The protocol:
(§5) Antimicrobial activity of WF11605 was determined by broth dilution method in a conventional manner.
^2 Sabouraud 25° C. 40 hrs

The next data set concerns Candida krusei OUT-6007. Description: Antimicrobial activity, broth dilution method. Type of data set: cell-based. The settings on record: Pichia kudriavzevii, OUT6007; Sabouraud 30° C. 20 hrs. The protocol:
as §5
(§6) ^1 Sabuoraud 30° C. 20 hrs

In a further data set the test system is Candida utilis. Description: Antimicrobial activity, broth dilution method. The data set is classed as cell-based. The settings on record: Williopsis jadinii; Sabouraud 30° C. 20 hrs. The protocol: as §5, §6
Data set [4] has as its system Torulopsis colliculsa IAM-4426. The data set can be described thus: Antimicrobial activity, broth dilution method. Type of data set: cell-based. The settings on record: Sabouraud 30° C. 20 hrs. Here is the method:
as §5, §6

Another data set deals with Candida albicans FP633. The data set can be described thus: Antimicrobial activity, broth dilution method. Type of data set: cell-based. Particulars: Sabouraud 30° C. 20 hrs. Here is the method: as §5, §6
The test system of data set [5] is Cryptococcus albidus AHU-3922. Description: Antimicrobial activity, broth dilution method. The data set is classed as cell-based. The settings on record: Naganishia albida, AHU3922; Sabouraud 30° C. 20 hrs. The protocol: as §5, §6
The next data set concerns certain yeasts. Description: Antimicrobial activity, broth dilution method (summary). The data set is classed as cell-based. Here is the method:
as §5

Data set [6] deals with PAF-induced degranulation in rabbit PMNLs. Description: PAF-induced degranulation (beta-glucuronidase release) of rabbit PMNLs. Particulars: Oryctolagus cuniculus, PMNL; PAF 7×10^-7 M, Cytochalasin B 10^-5 M; read-out: 50% inhibitory concentration (IC50), PAF-induced degranulation. The data set is classed as cell-based. The protocol: as §1, §2, §3, §4
The test system of data set [7] is LTB4-induced degranulation in rabbit PMNLs. Description: LTB4-induced degranulation (beta-glucuronidase release) of rabbit PMNLs. Type of data set: cell-based. Particulars: Oryctolagus cuniculus, PMNL, LTB4 7×10^-8 M, Cytochalasin B 10^-5 M. The protocol: as §1, §2
The assay mixture consisted of 300 μl of acetate buffer (0.1M, pH 4.6), 100 μl of sample (supernatant obtained above) and 50 μl of methylumbelliferyl-beta-D-glucuronide (1 mM, NAKARAI CHEMICAL Co.,) as substrate. The reaction was started by addition of the substrate and terminated after 15 min at 37° C. by the addition of 2 ml glycine buffer (0.1M, pH 10.32). The fluorescence (excitation; 365 nm, emission; 455 nm) of each sample was determined.
as §4

Another data set is described as follows: Solubility. The data set is classed as physicochemical. The settings on record: free form.

As for `CC(=O)OC1CC2(C)C3=C(CCC2C(C)(C)C1OC1OC(CO)C(O)C(O)C1O)C1(C)CC(=O)C(C)(C(C)C(C)C)C(C(=O)O)C1(C)CC3` (stereo not shown) [WF11605], the IC50 was > 100 µM in data set [1]; > 100 µM in data set [6]; 3 µM in data set [7] (read-out: 50% inhibitory concentration (IC50), LTB4-induced degranulation). Besides, the “^3 H-LTB4 specific binding” value in data set [2] (WF11605 7 × 10^-6 M) amounted to 596 dpm; in [2] (WF11605 7 × 10^-7 M) it was 1264 dpm. Besides, the inhibition at 7 µM in [2] (WF11605 7 × 10^-6 M, read-out: inhibition of 3H-LTB4 specific binding) was 64.6%. Further, the inhibition at 0.7 µM in data set [2] (WF11605 7 × 10^-7 M, read-out: inhibition of 3H-LTB4 specific binding) came out at 24.9%. In [3], the LD50 was > 1000 mg/kg. Also, the MIC against Mucor rouxianus Wehmer turned out to be 200 µg/mL (≈ 289 µM); with Candida krusei OUT-6007 it was 25 µg/mL (≈ 36.1 µM); against Candida utilis, 50 µg/mL (≈ 72.2 µM); in data set [4] it was 50 µg/mL (≈ 72.2 µM); in the data set on Candida albicans FP633, 25 µg/mL (≈ 36.1 µM); in data set [5] it was 100 µg/mL (≈ 144 µM). Also, in the data set on certain yeasts, the Antimicrobial activity entry was “has antimicrobial activity against certain yeasts”. The inhibition at 100 µM in data set [7] (WF11605 10^-4 M, read-out: Inhibition of total beta-glucuronidase release) came out at 93.6%. Also, in [7] (WF11605 10^-5 M, read-out: Inhibition of total beta-glucuronidase release), the inhibition at 10 µM worked out at 66.9%. The inhibition at 1 µM in [7] (WF11605 10^-6 M, read-out: Inhibition of total beta-glucuronidase release) amounted to 30.3%. Moreover, in data set [7] (WF11605 10^-7 M, read-out: Inhibition of total beta-glucuronidase release), the inhibition at 0.1 µM is 17.5%. Further, the inhibition at 0.01 µM in data set [7] (WF11605 10^-8 M, read-out: Inhibition of total beta-glucuronidase release) came to 12.2%. The Solubility result in “Solubility” (H2 O, methanol, ethanol) is recorded as “sparingly soluble”; in “Solubility” (chloroform, ether) it was “insoluble”.
